Experiment [1] has as its target T1, CgTHI6 (Nakaseomyces glabratus, UniProt Q6FV03).
T1 sequence (Q6FV03 1-540): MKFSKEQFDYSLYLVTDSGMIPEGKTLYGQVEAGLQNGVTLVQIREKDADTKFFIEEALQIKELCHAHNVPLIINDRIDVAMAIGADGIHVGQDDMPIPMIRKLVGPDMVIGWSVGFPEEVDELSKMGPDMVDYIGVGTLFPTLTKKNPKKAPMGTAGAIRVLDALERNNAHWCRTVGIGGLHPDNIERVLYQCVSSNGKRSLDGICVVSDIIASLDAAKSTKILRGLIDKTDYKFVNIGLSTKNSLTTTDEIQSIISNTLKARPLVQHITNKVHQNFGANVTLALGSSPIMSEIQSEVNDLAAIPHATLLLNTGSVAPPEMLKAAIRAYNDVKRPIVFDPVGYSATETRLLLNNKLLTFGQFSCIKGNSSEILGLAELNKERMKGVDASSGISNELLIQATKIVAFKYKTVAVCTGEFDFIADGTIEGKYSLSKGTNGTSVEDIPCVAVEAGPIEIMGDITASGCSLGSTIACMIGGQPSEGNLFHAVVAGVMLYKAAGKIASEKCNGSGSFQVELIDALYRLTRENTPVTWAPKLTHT
The experiment in a line: HPLC of Thz-P formation at […] nm. Particulars: ThiM activity; 2 mM ATP, 1.2 mM Thz, 2 mM MgSO4, room temperature, 2 h. The class given is biochemical.

Experiment [2] deals with T1, CgTHI6. The experiment in a line: X-ray crystal structure. The class given is binding. Particulars: ThiM (C-terminal) domain ATP site; Mg2+.
Experiment [3] concerns the target T1, CgTHI6. The experiment can be described thus: HPLC of ThMP formation at […] nm. The class given is biochemical. Particulars: TPS activity; 1 mM HMP-PP, 1.2 mM Thz, 2 mM ATP, 2 mM MgSO4, room temperature, 2 h.

SMILES strings stand for the structures.

For `Nc1ncnc2c1ncn2[C@@H]1O[C@H](COP(=O)(O)OP(=O)(O)OP(=O)(O)O)[C@@H](O)[C@H]1O` [ATP], the “HPLC of Thz-P formation at 261 nm” value at CgTHI6 [1] was “the purified protein was incubated with Thz and ATP, formation of Thz-P was noted”.

On to `Nc1ncnc2c1ncn2[C@@H]1O[C@H](COP(=O)(O)OP(=O)(O)CP(=O)(O)O)[C@@H](O)[C@H]1O` [AMP-PCP], for which, on CgTHI6 [2], the “X-ray crystal structure (soaked, 3.3 A with Thz; 2.6 A with ThMP)” value was “The ATP binding site is inferred from the complex containing the non-hydrolizable ATP analogue, AMP-PCP”. `Cc1ncc(COP(=O)(O)OP(=O)(O)O)c(N)n1` [HMP-PP, 4-amino-5-hydroxymethyl-2-methylpyrimidine pyrophosphate]: on CgTHI6 [3], the “HPLC of ThMP formation at 261 nm” value was “Incorporation of HMP-PP in the same reaction resulted in the production of ThMP”.
